Values joined by “and” are separate entries in the source; they are usually repeats but may differ in a detail not shown here. Equal values may be shown once. Active and inactive are the calls of the source.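 Rule for the calls: active = compounds giving half or more protection of infected cells from virus-caused growth loss, again on retest; inactive = the rest.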
Test system: CEM cells HIV-1 protection, formazan growth assay
Experiment: NCI AIDS Antiviral Assay
Conditions: for IC50: measured here: growth of uninfected CEM cells
How it was run: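 Steps: treat uninfected and HIV-1-infected human CEM cells at five drug levels; quantify growth by soluble formazan; retest any compound reaching 50% protection; classify actives from the retest.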

| Structure (SMILES) | EC50 | IC50 | outcome |
| --- | --- | --- | --- |
| Cc1cccc(NC(=O)Nc2ccccc2Cl)n1 | > 200 µM | > 200 µM | – |
| Cc1cc(O)c(C=NC(=S)C(N)=S)c(=O)o1 | > 200 µM | 41.7 µM | – |
| O=c1cc(-c2ccccc2)oc2c(O)c(O)cc(O)c12 | > 186 µM | > 186 µM | – |
| CCCc1cc(=O)oc2c3c(c4c(c12)OC(C)(C)CC4)OC(C)[C@H](C)[C@@H]3O (stereo partly specified) | 14.8 µM | 15.1 µM | – |
| Cc1cc2nc3ccc(=[N+](C)C)cc-3sc2cc1N | > 117 µM | 0.676 µM | – |
| O=S(=O)(O)CN(CCN(CS(=O)(=O)O)CS(=O)(=O)O)CS(=O)(=O)O | > 200 µM | 20.4 µM | – |
| Cc1ccccc1C(O)(c1nccn1C)c1nccn1C | > 200 µM | > 200 µM | – |
| CC1=NN(c2ccc(S(=O)(=O)O)cc2)/C(=N/NC(N)=S)C1 | > 759 µM | 427 µM | – |
| CC(C)(C)[Si](C)(C)OCC1OC(n2cnc3c(N)ncnc32)C(O[Si](C)(C)C(C)(C)C)C1O[Si](C)(C)C(C)(C)C (stereo unspecified) | > 200 µM | 44.7 µM | – |
| CC(C)N1CCCOC(c2ccc([N+](=O)[O-])cc2)O1 (stereo unspecified) | > 200 µM | 112 µM | – |
| CC1CCOS(=O)O1 (stereo unspecified) | > 1820 µM | > 1820 µM | – |
| CCN(CC)c1c(C)nnc2c3c(-c4ccccc4)c(-c4ccccc4)nnc3nn12 | > 200 µM | > 200 µM | – |
| CN(C)CCSc1cccc(-c2cc(-c3cccc(SCCN(C)C)c3)nc(SCCN(C)C)n2)c1 | > 457 µM | 0.708 µM | – |
| CCOC(=O)C(Cc1cc(OC)c(CC(C(=O)OCC)C(=O)OCC)cc1OC)C(=O)OCC | – | – | inactive |
| CC(=O)OC1C2C(=C(C)C(=O)O[C@@H]2c2ccoc2)[C@@]2(C)CC3CC(C)(C(=O)O3)C12 (stereo partly specified) | > 200 µM | > 200 µM | – |
| O=C1CCSC2=C1SCc1sccc12 | – | – | inactive |
| CN(C)C=Nc1c2ccccc2nc2ccccc12 | > 200 µM | 2.45 µM | – |
| CC(C)(C)[Si](C)(C)OCC1OC(n2ccc(=O)[nH]c2=O)C(O[Si](C)(C)C(C)(C)C)/C1=C/C#N (stereo unspecified) | > 200 µM | 8.13 µM | – |
| Cc1c(O)c(OC2OC(CO)C(O)C(O)C2O)cc2c1CC[C@@H]1C2(C)C(=O)C[C@]2(C)[C@@H]([C@@](C)(O)C(O)/C=C/C(C)(C)O)[C@H](O)C[C@@]12C (stereo partly specified) | > 200 µM | > 200 µM | – |
| O=C(/C=C/c1ccc(O)c(F)c1)CC(=O)/C=C/c1ccc(O)c(F)c1 | > 200 µM | 12.6 µM | – |
| COC(=O)C1C(C(=O)OC)C2N(c3ccccc3)C=NN2C1C(=O)c1ccccc1 (stereo unspecified) | 182 µM | > 200 µM | – |
| CCOC(=O)c1s/c(=N\Nc2nc3ccccc3cc2C2OCCO2)n(Cc2ccccc2)c1C | > 5.5 µM | > 5.5 µM | – |

| Structure (SMILES) | EC50 | IC50 | outcome |
| --- | --- | --- | --- |
| COC(=O)/C=C/N1CC1 | > 200 µM | > 200 µM | – |
| CCc1cccc(C(C)(C)C)c1NC(=S)N/C=C(\c1ccccc1)S(=O)Cc1ccccc1 (stereo unspecified) | 182 µM | > 200 µM | – |
| CC1=NC(C)(C)CC2CCC(O)C12 (stereo unspecified) | > 200 µM | > 200 µM | – |
| CC(=O)/C=C/c1ccc(C2CC(C)=Nc3c(ccc4c3C(=O)c3ccccc3C4=O)N2)cc1 (stereo unspecified) | > 6.31 µM | > 6.31 µM | – |
| CCSC(=O)C1(C)Cc2ccccc2O1 (stereo unspecified) | – | – | inactive |
| Clc1ccc(-c2c(C3=NCCCN3)nnn2-c2ccc(Cl)cc2)cc1 | > 490 µM | 30.9 µM | – |
| O=C(/C=C/c1cccs1)c1cccc(C(=O)/C=C/c2cccs2)n1 | > 200 µM | 110 µM | – |
| Cc1cccc2c1Oc1ncccc1C2NC(=O)CN(C)C (stereo unspecified) | > 200 µM | > 200 µM | – |
| NCCCN(CCCCN(CCCN)Cc1ccccc1)Cc1ccccc1 | 64.6 µM | 70.8 µM | – |
| O=C(CP(=O)(c1ccccc1)c1ccccc1)c1cccc(C(=O)CP(=O)(c2ccccc2)c2ccccc2)c1 | > 200 µM | 158 µM | – |
| O=C(CC1CCN(C(=O)c2ccccc2)C(Cc2c[nH]c3ccccc23)C1O)N1CCCC1 (stereo unspecified) | > 200 µM | > 200 µM | – |
| COc1cc(-c2oc3c(OC)cc(OC)c(O)c3c(=O)c2OC)cc(OC)c1OC | > 200 µM | > 200 µM | – |
| OCC(O)C(OC1OC(CO)C(O)C(O)C1O)C(O)C(/C=N\Nc1ccccc1)=N/Nc1ccccc1 (stereo unspecified) | > 200 µM | 4.9 µM | – |
| CC1CC(c2ccccc2)=Nc2ccccc2S1 (stereo unspecified) | > 14.1 µM | > 14.1 µM | – |
| CSc1s[s+]c(SC)c1-c1ccccc1 | 14.8 µM | 16.2 µM | – |
| CCOC1OC2O[C@]3(C)CCC4C(C)CCC([C@H]1C)C24OO3 (stereo partly specified) | – | – | inactive |
| COc1ccc(NS(=O)c2ccc(-c3ccccc3)cc2)cc1 (stereo unspecified) | > 200 µM | 14.8 µM | – |
| Nc1ncnc2c1ncn2[C@H]1[C@H](CO)[C@@H](CO)C1(F)F | > 200 µM | 155 µM | – |
| Cc1cccc(Nc2cn(COCc3ccccc3)c(=O)[nH]c2=O)c1 | > 200 µM | 81.3 µM | – |
| CN(C(=O)C1=CCC2(CC1)OCCO2)c1ccccc1OS(=O)(=O)C(F)(F)F | > 200 µM | > 200 µM | – |
| Oc1ccccc1C(c1cc2c(cc1O)OCO2)N1CCOCC1 (stereo unspecified) | > 200 µM | 11 µM | – |
| N#CN1C2CCC1CC(=O)C2 | 67.6 µM | 129 µM | – |

| Structure (SMILES) | EC50 | IC50 | outcome |
| --- | --- | --- | --- |
| COc1ccc2c(c1)C1OCCNC1CC2 (stereo unspecified) | > 200 µM | > 200 µM | – |
| COc1cc2nncc(SC)c2cc1OC | > 91.2 µM | 72.4 µM | – |
| C=CC(=O)N1C/C(=C\c2ccc(N(C)C)cc2)C(=O)/C(=C/c2ccc(N(C)C)cc2)C1 | > 200 µM | 60.3 µM | – |
| COc1cccc2c1C(=O)c1c(O)c3c(c(O)c1C2=O)C[C@@](O)(C(C)O)C[C@@H]3OC1CC(N)C(O)C(C)O1 (stereo partly specified) | – | – | inactive |
| O=C(O)c1cc(=O)c2c(OCC(O)COc3cccc4oc(C(=O)O)cc(=O)c34)cccc2o1 | > 200 µM | > 200 µM | – |
| CCOC(=O)/C(=C1/Nc2ccccc2S1)c1ncnc2nc[nH]c12 | – | – | inactive |
| COC(=O)C(CC(=O)Nc1ccc(Cl)c(Cl)c1)C(=O)C(=O)Nc1ccc(Cl)c(Cl)c1 (stereo unspecified) | > 52.5 µM | > 52.5 µM | – |
| Cc1ccccc1NC(=O)Cc1csc(N/N=C2\NC(=O)/C(=C/c3cccc([N+](=O)[O-])c3)S2)n1 | > 200 µM | > 100 µM | – |
| CCN(CC)C(=O)Cn1c2c(c3ccccc31)CCCC2 | > 200 µM | 138 µM | – |
| CCN(CC)P1(=O)C=C(C)C2C1C1C=C(C)C2P1(=O)N(CC)CC (stereo unspecified) | – | – | inactive |
| CCOC(=O)c1c(N)n(-c2ccccc2)c(=S)n(-c2ccccc2)c1=O | > 178 µM | > 178 µM | – |
| COC(=O)C(=O)C(C(=O)OC)C(=O)C(=O)Nc1cc(Cl)c(C)cc1S(=O)(=O)O (stereo unspecified) | > 575 µM | > 575 µM | – |
| COc1c(-c2cccs2)oc2c(CC(=O)O)cccc2c1=O | > 200 µM | 91.2 µM | – |
| CCCCN(C)C(=O)C1=C(C)NC(C)=C(C(=O)N(C)CCCC)C1 | > 200 µM | 102 µM | – |
| O=C1CCCCc2cccc(O)c21 | > 200 µM | > 200 µM | – |
| Cn1c(=O)[nH]c2[nH]c3ccccc3c2c1=O | > 200 µM | > 200 µM | – |
| CCOC(=O)c1sc2nc(CN3CCOCC3)[nH]c(=O)c2c1C | > 77.6 µM | > 77.6 µM | – |
| COc1ccccc1NC(=O)/C(=C/n1c(=S)[nH]c2ccccc21)C(C)=O | > 200 µM | > 200 µM | – |
| Cc1ccc(S(=O)(=O)[N-]C2C(=O)c3ccccc3C(=O)C2[n+]2cccc(C(N)=O)c2)cc1 (stereo unspecified) | > 200 µM | > 200 µM | – |
| COC1(OC)CCC2(C)OC(c3ccccc3)C1O2 (stereo unspecified) | – | – | inactive |
| CNCS(=O)(=O)O | > 200 µM | 97.7 µM | – |
| O=[N+]([O-])c1ccccc1S(=O)(=O)c1cc(Cl)cc2c1NCCC2 | > 151 µM | 28.8 µM | – |

| Structure (SMILES) | EC50 | IC50 | outcome |
| --- | --- | --- | --- |
| N.N.NC(CS)C(=O)[O-].NC(CS)C(=O)[O-].[Pt+4] (stereo unspecified) | > 3310 µM | > 3310 µM | – |
| COC(=O)[C@@H]1C[C@]2(CC=O)c3ccccc3N(S(=O)(=O)c3ccccc3)[C@@H]2N1C(=O)OC | > 100 µM | 70.8 µM | – |
| O=C(C[P+](c1ccccc1)(c1ccccc1)c1ccccc1)c1ccccc1 | > 200 µM | 32.4 µM and 31.6 µM and 37.2 µM | – |
| Cc1cc(N(CCC#N)CCC#N)ccc1N=Nc1ccc(Br)cc1 | > 6.92 µM | > 6.92 µM | – |
| O=C(O)Cc1cc(=O)oc2cc(O)ccc12 | > 1120 µM | > 1120 µM | – |
| CC(C)[Si](O[C@@H]1CCC[C@@]23O[C@@H]2CC2C(=O)c4c(O)cccc4C(=O)[C@@]2(O)[C@@H]13)(C(C)C)C(C)C (stereo partly specified) | > 200 µM | 14.1 µM | – |
| [Cl][Tb]([Cl])[Cl] | – | – | inactive |
| Clc1ccc(C=NC23CC4CC(CC(C4)C2)C3)cc1Cl | > 200 µM | 95.5 µM | – |
| CN(C)c1ccc(C=C(C(=O)O)C(=O)O)cc1 | > 550 µM | > 550 µM | – |
| O=c1oc2ccccc2c(O)c1C1c2c(c3ccccc3oc2=O)Oc2c1c(=O)oc1ccccc21 | – | – | inactive |
| CCCCCCCCCCCCCCCCCCOC(COP(=O)(O)OCC1OC(n2cc(F)c(=O)[nH]c2=O)CC1O)COP(=O)(O)OCC1OC(n2cc(C)c(=O)[nH]c2=O)CC1N=[N+]=[N-] (stereo unspecified) | > 5.75 µM | 0.0501 µM | – |
| Cc1cc(O)c2c(c1)C(=O)C(c1c(C)cc3c(c1O)C(=O)C1OC1C3=O)=CC2=O (stereo unspecified) | > 174 µM | 0.0933 µM | – |
| Cc1nc(C(N)=S)sc1C(=O)C/C(=N/N)C(=O)Nc1cccc(Cl)c1C | > 166 µM | > 166 µM | – |
| CSc1ccc(NC(=O)C2c3[nH]c4ccccc4c3C3CCC(C(C)(C)C)CC3C2C(=O)O)cc1 (stereo unspecified) | > 7.76 µM | > 7.76 µM | – |
| N#Cc1ccc(/C=C/C(=O)c2ccccc2)cc1 | > 30.9 µM | 14.5 µM | – |
| c1ccc2c(c1)cnn1cnnc21 | > 1480 µM | 661 µM | – |
| O=C(NNCC(F)(F)F)c1ccncc1 | > 200 µM | 30.2 µM | – |
| Cc1c(-c2ccccc2)nn2cc(-c3ccccc3)nnc12 | > 200 µM | 11 µM | – |
| COc1cc2c(cc1OC)C13CCN4CC5=CCOC6CC(=O)N2C1C6C5CC43 (stereo unspecified) (tested in a mixture with another compound) | > 200 µM | 53.7 µM | – |
| O=C(Cc1nccc2c1[nH]c1ccccc12)OC1C#CCSCC#C/C=C\1 (stereo unspecified) | > 200 µM | 28.2 µM | – |
| Nc1ncnc(N)c1N=O | > 200 µM | 5.89 µM and 1.62 µM | – |
| CCNc1nc(NC(C)C)nc(-c2ccncc2)n1 | > 200 µM | 138 µM | – |

Source: PubChem BioAssay AID179 (DTP/NCI, 2004)
